Source: patent US20050042256A1, “Lipid blends and food products containing oleic fatty acid and omega-6 fatty acids, designed to increase the intramyocellular lipid level” (priority 2001, published 2005)

tested on: Human skeletal muscle cells; assay: IMCL (triacylglycerol) accumulation in muscle cells incubated with fatty acids; format: cell-based; conditions: 0.5 mM FFA salt bound to albumin, DMEM + 25 mM glucose, 24 hrs at 37° C; FIGURE 1
Protocol: Human skeletal muscle cells were used as a model to test the effect that different fatty acids (as precursors) may have on the extent of muscle triglyceride storage.
Primary cultures were initiated from a bank of satellite cells of muscle biopsies obtained from patients free of muscle disease. Aneural muscle cultures were established in a monolayer, then they were grown in a DMEM-M-199 medium, 3:1, supplemented with 10% fetal bovine serum, 10 μg/ml insulin, 2 mM glutamine, 25 ng/ml fibroblast growth factor, and 10 ng/ml epidermal growth factor. Immediately after myoblast fusion, cells were rinsed in Hank's balanced salt solution and a medium devoid of FGF, EGF, and glutamine was added. Muscle cultures were maintained in this medium for up to 4 weeks.
Cells were incubated with DMEM+glucose (25 mM)+0.5 mM FFA salt bound to albumin (in independent experiments for each FFA), for 24 hrs at 37° C. As examples for the fatty acids used in blend 1 (promoting IMCL storage), oleate (C18:1 cis), linoleate (C18:2 cis/cis), n-6 linoleate and n-3 linoleate.
As examples for the fatty acids used in blend 2 (inhibiting IMCL storage), octanoate (C8:0), palinitate (C16:0) and stearate (C18:0).
After incubation, cell lipids were extracted according to the method of Bligh and Dyer (Can. J. Biochem Physiol 37: 911-917, 1959). To determine the IMCL content, extracts were prepared by scraping cell monolayers in a buffer consisting of 50 mM Tris, 100 mM KCl, 20 mM KF, 0.5 mM EDTA and 0.05% Lubrol PX, pH 7.9, and they were sonicated three times for 5 seconds. Homogenates were centrifuged at 11′000 g for 15 min and the resulting supernatants were collected. Total triacylglycerol (i.e. IMCL) was measured with a Cobas-Bio autoanalyzer with a GPO-Trinder kit, with triolein resuspended in the extraction buffer as a standard. The intramyocellular nature of the triglycerides was evidenced by histo-chemical staining with Sudan III in 70% ethanol.

| Compound | accumulation / synthesis of IMCL (total triacylglycerol) |
| --- | --- |
| CCCCCCCCCCCCCCCCCC(=O)O [stearate, stearate (C18:0)] | moderate synthesis |
| CCCCCCCC/C=C\CCCCCCCC(=O)O [oleate, oleate (C18:1 cis)] | notably higher synthesis |
| CCCCC/C=C\C/C=C\CCCCCCCC(=O)O [linoleate, linoleate (C18:2 cis/cis)] | notably higher synthesis |
| CCCCCCCC(=O)O [octanoate, octanoate (C8:0)] | no accumulation of IMCL |
